In publication doi:10.1101/2025.06.05.657999, “A secreted fatty acid- and retinol- binding protein from Heligmosomoides polygyrus suppresses host macrophage polarization” (bioRxiv, 2025):

Assays:
Hp-FAR-2 [1] = target: T1, Hp-FAR-2 (Heligmosomoides polygyrus, UniProt A0A183GLK6); test: fluorescence titration, one-site fit; assay type: binding
T1 construct: mature protein, residues 18-180 of 180 (signal peptide removed), N-terminal 6-His tag, pET histev N'term, E. coli BL21(DE3), Ni-NTA and SEC; ~17-18 kDa on SDS-PAGE
T1 sequence (A0A183GLK6 entry or part of it): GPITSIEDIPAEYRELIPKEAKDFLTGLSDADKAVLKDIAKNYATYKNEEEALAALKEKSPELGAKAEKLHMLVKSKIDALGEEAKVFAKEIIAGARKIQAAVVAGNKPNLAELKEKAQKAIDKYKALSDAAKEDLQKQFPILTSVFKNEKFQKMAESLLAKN

Hp-FAR-2 [2] = target: T1, Hp-FAR-2; test: fluorescence titration of retinol, one-site fit; assay type: binding

SMILES	Kd (Hp-FAR-2 [1]) [µM]	Kd (Hp-FAR-2 [2]) [µM]
CN(C)c1cccc2c(S(=O)(=O)NCCCCCCCCCCC(=O)O)cccc12 [DAUDA]	2.65	
CC1=C(/C=C/C(C)=C/C=C/C(C)=C/CO)C(C)(C)CCC1 [retinol]		6.55
